Laboratory results: patent publication US10603320B2, “Compounds useful for inhibiting ROR-gamma-t” (Eli Lilly and Company, priority 2017, dated 2020)

Columns and labels:
[1] = target: human RORg ligand binding domain fused to yeast GAL4 DNA binding domain (Homo sapiens (Human), UniProt P51449); assay: HEK293 RORg GAL4 Receptor-Reporter Assay; type: cell-based; conditions: HEK293 cells, RORg-GAL4/pGL4.31 luciferase reporter, 18 hours; mean ± standard deviation; read-out: hIC50
Protocol: As an indicator of inverse agonist activity, an RAR-related orphan receptor gamma (RORg) receptor-reporter assay (RORg-GAL4/pGL4.31) is performed in HEK293 cells. HEK293 cells are co-transfected using Fugene™ reagent. A reporter plasmid containing a GAL4 binding domain and a minimal adenoviral promoter upstream of a firefly luciferase gene is co-transfected with a plasmid constitutively expressing a human RORg ligand binding domain fused to yeast GAL4 DNA binding domain. Cells are transfected in T150 cm^2 flasks in MEM media without FBS. After 18 hours incubation, transfected cells are trypsinized, plated in 96-well microtiter plates in 3:1 DMEM-F12 media containing 10% FBS, incubated for 4 hours and then exposed to various concentrations of test compounds ranging from about 0.05 nM to 10 μM. After 18 hours of incubations with compounds, cells are lysed and luciferase activity is quantified using standard techniques. Data is fit to a 4 parameter-fit logistics to determine IC50 values.

[2] = test system: PBMC; assay: cells; type: cell-based; conditions: Homo sapiens, 48 h, read-out: Cell TiterGlo Viability (EC50)
Protocol: PBMC's are isolated from whole blood buffy coats by first combining fresh buffy coats with equal volumes of phosphate buffered saline. Thirty five mL of PBS/buffy coat solution are then gently overlaid onto 15 mL of Ficoll in 50 mL conical tubes. Following centrifugation for 30 minutes at 500×g (with slow acceleration and deceleration) the top layer of plasma is discarded and the layer of cells along the Ficoll interface is collected and pooled. Each 250 mL tube is filled to the top with room temperature RPMI-1640 media. Tubes are spun for 10 minutes at 500×G (with slow acceleration and deceleration), the media is removed by aspiration, and the wash step is repeated. Cells are resuspended in ice cold Recovery Cell Culture Freezing Medium from Life Technologies (Catalog number 12648-010) on ice. […].
PBMC are brought out of thaw by resuspending with 1 mL of complete media (RPMI-1640 containing 30 mM HEPES, 100 units/mL penicillin, 100 μg/mL streptomycin, 3.25 mM L-Glutamine, 0.2 μM beta-mercaptoethanol, and 10% FBS) followed by the drop wise addition of 2 mL, 4 mL, 8 mL, and 16 mL of complete media with gentle swirling. Cells are spun down for 5 minutes and the cell pellet is resuspended in complete media. Clumps of cells are broken up by running the cell solution through a 23 gauge syringe needle and a 40 μM cell strainer. […].
Equal volumes of Cell TITERGLO® cell viability testing reagent (Promega Cat #G7573) are added to the cells remaining in the plates, and following a fifteen minute incubation with gentle shaking at room temperature luminescence is measured with the Envision multi-label plate reader. Percent cell death is calculated by setting 100% activity (cell death) to zero luminescence units and minimum activity (max number of viable cells) as the average luminescence units of wells containing stimulants alone and no added compound. IC50's are calculated using a standard four parameter fit.

[3] = target: human RAR-related orphan receptor beta (hRORb) (Homo sapiens (Human), UniProt Q92753); assay: RORb receptor-ligand competition binding assay; conditions: His-tagged hRORb, [3H]-labelled isoxazole benzoic acid ligand
[4] = test system: IL-17 secretion in PBMC; assay: PBMC IL-17 Secretion ELISA; type: cell-based; conditions: Homo sapiens; anti-CD3/anti-CD28/IL-23 stimulated PBMC, 48 hours; mean ± standard deviation; read-out: hPBMC IL-17 ELISA (EC50)
Protocol: PBMC's are isolated from whole blood buffy coats by first combining fresh buffy coats with equal volumes of phosphate buffered saline. Thirty five mL of PBS/buffy coat solution are then gently overlaid onto 15 mL of Ficoll in 50 mL conical tubes. Following centrifugation for 30 minutes at 500×g (with slow acceleration and deceleration) the top layer of plasma is discarded and the layer of cells along the Ficoll interface is collected and pooled. Each 250 mL tube is filled to the top with room temperature RPMI-1640 media. Tubes are spun for 10 minutes at 500×G (with slow acceleration and deceleration), the media is removed by aspiration, and the wash step is repeated. Cells are resuspended in ice cold Recovery Cell Culture Freezing Medium from Life Technologies (Catalog number 12648-010) on ice. The cell concentration is adjusted to 66.7 million cells/mL. Cell are slow frozen at −1° C./minute in vials with 100 million cells and stored in liquid nitrogen.
PBMC are brought out of thaw by resuspending with 1 mL of complete media (RPMI-1640 containing 30 mM HEPES, 100 units/mL penicillin, 100 μg/mL streptomycin, 3.25 mM L-Glutamine, 0.2 μM beta-mercaptoethanol, and 10% FBS) followed by the drop wise addition of 2 mL, 4 mL, 8 mL, and 16 mL of complete media with gentle swirling. Cells are spun down for 5 minutes and the cell pellet is resuspended in complete media. Clumps of cells are broken up by running the cell solution through a 23 gauge syringe needle and a […] cell strainer. One hundred thousand cells per well are added to 384 well polystyrene tissue culture treated flat bottomed plates in a total of 30 μL. […]
Following the incubation period the plates are spun at 200×g for five minutes. […] Absorbance at 492 nm is measured with the Envision multi-label plate reader. […] IC50's for inhibition of IL-17 secretion is calculated based on converted values using a standard 4-parameter fit with maximum inhibition determined from the average values of wells with no added stimulants nor compounds and minimum inhibition from the average values of wells with stimulants alone and no added compound.

[5] = target: human RAR-related orphan receptor gamma (hRORg) (Homo sapiens (Human), UniProt P51449); assay: RORg receptor-ligand competition binding assay; conditions: His-tagged hRORg, [3H]-25-hydroxycholesterol; mean ± standard deviation
[6] = target: human RAR-related orphan receptor alpha (hRORa) (Homo sapiens (Human), UniProt P35398); assay: RORa receptor-ligand competition binding assay; conditions: His-tagged hRORa, [3H]-25-hydroxycholesterol; mean ± standard deviation
Chain of human RAR-related orphan receptor alpha (hRORa) (P35398 whole entry): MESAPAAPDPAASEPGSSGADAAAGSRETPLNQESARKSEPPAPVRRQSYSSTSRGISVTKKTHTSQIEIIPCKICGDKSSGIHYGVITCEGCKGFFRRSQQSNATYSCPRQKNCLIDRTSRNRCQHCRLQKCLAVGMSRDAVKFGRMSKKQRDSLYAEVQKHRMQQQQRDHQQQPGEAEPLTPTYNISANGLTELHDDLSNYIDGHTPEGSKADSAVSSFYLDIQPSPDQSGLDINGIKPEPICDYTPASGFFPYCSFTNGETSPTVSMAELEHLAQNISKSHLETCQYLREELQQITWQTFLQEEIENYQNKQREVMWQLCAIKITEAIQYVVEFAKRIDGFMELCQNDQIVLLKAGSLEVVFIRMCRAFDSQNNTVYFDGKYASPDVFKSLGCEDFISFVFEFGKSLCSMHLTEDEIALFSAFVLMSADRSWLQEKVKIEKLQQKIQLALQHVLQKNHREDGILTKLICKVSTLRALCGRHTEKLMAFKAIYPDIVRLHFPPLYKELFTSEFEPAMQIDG

Chain of human RORg ligand binding domain fused to yeast GAL4 DNA binding domain (P51449 269-508): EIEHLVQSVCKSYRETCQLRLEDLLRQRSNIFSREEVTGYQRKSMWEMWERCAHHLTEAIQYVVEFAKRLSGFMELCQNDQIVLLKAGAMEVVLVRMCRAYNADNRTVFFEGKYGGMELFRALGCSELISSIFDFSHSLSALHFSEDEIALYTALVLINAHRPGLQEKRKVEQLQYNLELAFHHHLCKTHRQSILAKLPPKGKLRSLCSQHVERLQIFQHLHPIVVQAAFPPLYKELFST
Chain of human RAR-related orphan receptor gamma (hRORg) (P51449 whole entry): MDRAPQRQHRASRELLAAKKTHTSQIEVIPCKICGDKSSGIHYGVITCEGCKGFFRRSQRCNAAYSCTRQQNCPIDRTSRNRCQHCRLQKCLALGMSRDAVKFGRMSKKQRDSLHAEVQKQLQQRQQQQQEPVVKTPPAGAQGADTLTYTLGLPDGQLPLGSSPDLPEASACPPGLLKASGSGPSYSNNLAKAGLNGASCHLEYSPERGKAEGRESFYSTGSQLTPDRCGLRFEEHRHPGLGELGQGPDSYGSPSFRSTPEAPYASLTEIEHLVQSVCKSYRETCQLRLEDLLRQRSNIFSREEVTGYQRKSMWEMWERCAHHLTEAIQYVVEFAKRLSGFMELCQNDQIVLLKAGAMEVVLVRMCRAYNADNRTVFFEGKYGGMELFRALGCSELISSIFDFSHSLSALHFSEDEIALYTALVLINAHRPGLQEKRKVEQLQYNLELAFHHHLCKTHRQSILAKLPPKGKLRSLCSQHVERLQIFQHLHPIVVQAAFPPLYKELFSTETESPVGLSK
Chain of human RAR-related orphan receptor beta (hRORb) (Q92753 whole entry): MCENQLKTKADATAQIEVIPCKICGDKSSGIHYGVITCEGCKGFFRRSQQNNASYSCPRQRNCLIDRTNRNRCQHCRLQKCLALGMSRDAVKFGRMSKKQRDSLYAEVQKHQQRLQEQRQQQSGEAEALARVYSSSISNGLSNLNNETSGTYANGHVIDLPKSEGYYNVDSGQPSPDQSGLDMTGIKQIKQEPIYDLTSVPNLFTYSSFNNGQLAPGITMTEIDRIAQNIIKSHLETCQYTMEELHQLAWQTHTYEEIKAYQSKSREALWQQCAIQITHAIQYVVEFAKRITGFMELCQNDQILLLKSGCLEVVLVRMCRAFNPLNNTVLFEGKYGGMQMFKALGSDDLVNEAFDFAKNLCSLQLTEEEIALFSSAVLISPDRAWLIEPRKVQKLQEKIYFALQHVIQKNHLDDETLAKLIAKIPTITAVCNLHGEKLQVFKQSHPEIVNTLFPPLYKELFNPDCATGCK

Question: Which results are given for `CCS(=O)(=O)c1ccc(CNC(=O)c2cc3c(s2)C2(CCN(C(C)c4ccc(C#N)cc4)CC2)OC2(CC2)C3)cc1` (single isomer, unassigned; isomer 1) [Example 8, 1′-[1-(4-Cyanophenyl)ethyl]-5,5-spirocyclopropane-N-[(4-ethylsulfonylphenyl)methyl]spiro[4H-thieno[2,3-c]pyran-7,4′-piperidine]-2-carboxamide isomer 1]?
Answer: IC50 [1]: 34.4 ± 6.01 nM; EC50 [2]: > 1000 nM; Ki [3]: > 12500 nM; EC50 [4]: 10.9 ± 6.44 nM; Ki [5]: 6 ± 1.81 nM; Ki [6]: > 20400 nM

Question: `CCS(=O)(=O)c1ccc(CNC(=O)c2cc3c(s2)C2(CCN([C@H](C)c4cnc(C(F)(F)F)nc4)CC2)OC(C)(C)C3)nc1` [Example 5, N-{[5-(Ethylsulfonyl)pyridin-2-yl]methyl}-5′,5′-dimethyl-1-{(1R)-1-[2-(trifluoromethyl)pyrimidin-5-yl]ethyl}-4′,5′-dihydrospiro[piperidine-4,7′-thieno[2,3-c]pyran]-2′-carboxamide] was tested. Which IC50 [1] did it give?
Answer: Its IC50 is 16.7 ± 20.3 nM.

Question: What about the EC50 [2] of the same compound?
Answer: The EC50 was over 1000 nM.

Question: And the Ki [3]?
Answer: Its Ki is over 12500 nM.

Question: And the EC50 [4]?
Answer: Its EC50 is 11 ± 7.67 nM.

Question: And the Ki [5]?
Answer: Its Ki is 6.96 ± 3.89 nM.

Question: How did the IC50 [1] turn out when `CCS(=O)(=O)c1ccc(CNC(=O)c2cc3c(s2)C2(CCN([C@H](C)c4cnc(C(F)(F)F)nc4)CC2)OC2(CC2)C3)nc1` [Example 7, N-{[5-(Ethylsulfonyl)pyridin-2-yl]methyl}-1″-(1R)-1-[2-(trifluoromethyl)pyrimidin-5-yl]ethyl-4′H-dispiro[cyclopropane-1,5′-thieno[2,3-c]pyran-7′,4″-piperidine]-2′-carboxamide] was run?
Answer: Its IC50 is 22.3 ± 23.8 nM.

Question: And the EC50 [2]?
Answer: Its EC50 is over 1000 nM.

Question: And the Ki [3]?
Answer: The Ki was over 12500 nM.

Question: And the EC50 [4]?
Answer: Its EC50 is 14.6 ± 8.24 nM.

Question: What about the Ki [5] of the same compound?
Answer: Its Ki is 6.4 ± 2.62 nM.
